Measurements from patent US6737383B1, “Herbicidal oxadiazolidines” (priority 1999, dated 2004).

Columns and labels:
pigweed = assay: Test B pre/postemergence pigweed; format: in vivo, Amaranthus retroflexus; conditions: for Plant response rating, Redroot pigweed: Postemergence
Method in brief: (§1)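 Herbicidal effect was estimated by eye on a ten-point control scale after plants spent twelve to sixteen days in a greenhouse following soil or foliar treatment. Foliar sprays targeted plants at one to four leaves; all doses were formulated in a non-phytotoxic solvent with surfactant.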

wheat = assay: Test B pre/postemergence wheat; format: in vivo, Triticum aestivum; conditions: for Plant response rating, Wheat: Postemergence
Method in brief: as §1

soybean = assay: Test B pre/postemergence soybean; format: in vivo, Glycine max; conditions: for Plant response rating, Soybean: Postemergence
Method in brief: as §1

bedstraw = assay: Test B pre/postemergence bedstraw; format: in vivo, Galium aparine; conditions: for Plant response rating, Bedstraw: Postemergence
Method in brief: as §1

morningglory = assay: Test B pre/postemergence morningglory; format: in vivo, Ipomoea hederacea
Method in brief: as §1

surinam grass = assay: Test B pre/postemergence surinam grass; format: in vivo, Brachiaria decumbens
Method in brief: as §1

wild oat = assay: Test B pre/postemergence wild oat; format: in vivo, Avena fatua; conditions: for Plant response rating, Wild oats: Postemergence
Method in brief: as §1

rape = assay: Test B pre/postemergence rape; format: in vivo, Brassica napus
Method in brief: as §1

blackgrass = assay: Test B pre/postemergence blackgrass; format: in vivo, Alopecurus myosuroides
Method in brief: as §1

crabgrass = assay: Test B pre/postemergence crabgrass; format: in vivo, Digitaria sanguinalis
Method in brief: as §1

velvetleaf = assay: Test B pre/postemergence velvetleaf; format: in vivo, Abutilon theophrasti; conditions: for Plant response rating, Velvetleaf: Postemergence
Method in brief: as §1

purple nutsedge = assay: Test B pre/postemergence purple nutsedge; format: in vivo, Cyperus rotundus
Method in brief: as §1

giant foxtail = assay: Test B pre/postemergence giant foxtail; format: in vivo, Setaria faberii
Method in brief: as §1

corn = assay: Test B pre/postemergence corn; format: in vivo, Zea mays
Method in brief: as §1

cocklebur = assay: Test B pre/postemergence cocklebur; format: in vivo, Xanthium strumarium
Method in brief: as §1

sugar beet = assay: Test B pre/postemergence sugar beet; format: in vivo, Beta vulgaris; conditions: for Plant response rating, Sugarbeets: Postemergence
Method in brief: as §1

[1] = Rate 125 g/ha, scale of 0 to 10 where 0 is no effect and 10 is complete control
[2] = Rate 500 g/ha, scale of 0 to 10 where 0 is no effect and 10 is complete control
[3] = Preemergence, Rate 62 g/ha, scale 0 to 10 (0 no effect, 10 complete control)
[4] = Preemergence, Rate 125 g/ha, scale of 0 to 10 where 0 is no effect and 10 is complete control
[5] = Preemergence, Rate 500 g/ha, scale of 0 to 10 where 0 is no effect and 10 is complete control
[6] = Rate 250 g/ha, scale of 0 to 10 where 0 is no effect and 10 is complete control
[7] = Postemergence, Rate 62 g/ha, scale of 0 to 10, 0 is no effect, 10 is complete control
[8] = Postemergence, Rate 125 g/ha, scale of 0 to 10 where 0 is no effect and 10 is complete control
[9] = Postemergence, Rate 500 g/ha, scale of 0 to 10 where 0 is no effect and 10 is complete control
[10] = Rate 250 g/ha, Postemergence, scale of 0 to 10 where 0 is no effect and 10 is complete control

CCC=CCn1c(=O)on(C(=O)N(c2ccccc2)C(C)C)c1=O [Compound 582]
Plant response rating, Redroot pigweed (pigweed; [1]): 0 | Plant response rating, Redroot pigweed (pigweed; [2]): 7 | Redroot pigweed plant response rating (pigweed; [3]): 0 | Redroot pigweed plant response rating (pigweed; [4]): 0 | Redroot pigweed plant response rating (0 to 10 scale) (pigweed; Preemergence, Rate 250 g/ha): 4 | Redroot pigweed plant response rating (pigweed; [5]): 9 | Plant response rating, Redroot pigweed (pigweed; [6]): 7 | Plant response rating, Wheat (wheat; [1]): 0 | Plant response rating, Wheat (wheat; [2]): 0 | Wheat plant response rating (wheat; [3]): 0 | Wheat plant response rating (wheat; [4]): 0 | Wheat plant response rating (0 to 10 scale) (wheat; Preemergence, Rate 250 g/ha): 0 | Wheat plant response rating (wheat; [5]): 0 | Plant response rating, Wheat (wheat; [6]): 0 | Plant response rating, Soybean (soybean; [1]): 3 | Plant response rating, Soybean (soybean; [2]): 3 | Soybean plant response rating (soybean; [3]): 0 | Soybean plant response rating (soybean; [4]): 0 | Soybean plant response rating (0 to 10 scale) (soybean; Preemergence, Rate 250 g/ha): 0 | Soybean plant response rating (soybean; [5]): 0 | Plant response rating, Soybean (soybean; [6]): 3 | Plant response rating, Bedstraw (bedstraw; [1]): 7 | Bedstraw plant response rating (bedstraw; [3]): 0 | Bedstraw plant response rating (bedstraw; [4]): 0 | Bedstraw plant response rating (0 to 10 scale) (bedstraw; Preemergence, Rate 250 g/ha): 6 | Bedstraw plant response rating (bedstraw; [5]): 6 | Plant response rating, Bedstraw (bedstraw; [6]): 9 | Morningglory plant response rating (morningglory; [7]): 9 | Plant response rating, Morningglory (morningglory; [8]): 10 | Plant response rating, Morningglory (morningglory; [9]): 10 | Morningglory plant response rating (morningglory; [3]): 0 | Morningglory plant response rating (morningglory; [4]): 0 | Morningglory plant response rating (0 to 10 scale) (morningglory; Preemergence, Rate 250 g/ha): 0 | Morningglory plant response rating (morningglory; [5]): 2 | Plant response rating, Morningglory (morningglory; [10]): 10 | B. signalgrass plant response rating (surinam grass; [7]): 0 | Plant response rating, B. signalgrass (surinam grass; [8]): 0 | Plant response rating, B. signalgrass (surinam grass; [9]): 3 | B. signalgrass plant response rating (surinam grass; [3]): 0 | B. signalgrass plant response rating (surinam grass; [4]): 0 | B. signalgrass plant response rating (0 to 10 scale, 0 is no effect, 10 is complete control) (surinam grass; Preemergence, Rate 250 g/ha): 2 | B. signalgrass plant response rating (surinam grass; [5]): 4 | Plant response rating, B. signalgrass (surinam grass; [10]): 0 | Plant response rating, Wild oats (wild oat; [1]): 0 | Plant response rating, Wild oats (wild oat; [2]): 3 | Wild oats plant response rating (wild oat; [3]): 0 | Wild oats plant response rating (wild oat; [4]): 0 | Wild oats plant response rating (0 to 10 scale) (wild oat; Preemergence, Rate 250 g/ha): 0 | Wild oats plant response rating (wild oat; [5]): 0 | Plant response rating, Wild oats (wild oat; [6]): 0 | Rape plant response rating (rape; [7]): 0 | Plant response rating, Rape (rape; [8]): 0 | Plant response rating, Rape (rape; [9]): 3 | Rape plant response rating (rape; [3]): 0 | Rape plant response rating (rape; [4]): 0 | Rape plant response rating (0 to 10 scale) (rape; Preemergence, Rate 250 g/ha): 0 | Rape plant response rating (rape; [5]): 3 | Plant response rating, Rape (rape; [10]): 0 | Blackgrass plant response rating (blackgrass; [7]): 3 | Plant response rating, Blackgrass (blackgrass; [9]): 7 | Blackgrass plant response rating (blackgrass; [3]): 0 | Blackgrass plant response rating (blackgrass; [4]): 0 | Blackgrass plant response rating (0 to 10 scale) (blackgrass; Preemergence, Rate 250 g/ha): 0 | Blackgrass plant response rating (blackgrass; [5]): 0 | Plant response rating, Blackgrass (blackgrass; [10]): 3 | Crabgrass plant response rating (crabgrass; [7]): 0 | Plant response rating, Crabgrass (crabgrass; [8]): 0 | Plant response rating, Crabgrass (crabgrass; [9]): 3 | Crabgrass plant response rating (crabgrass; [3]): 0 | Crabgrass plant response rating (crabgrass; [4]): 0 | Crabgrass plant response rating (0 to 10 scale) (crabgrass; Preemergence, Rate 250 g/ha): 0 | Crabgrass plant response rating (crabgrass; [5]): 7 | Plant response rating, Crabgrass (crabgrass; [10]): 3 | Plant response rating, Velvetleaf (velvetleaf; [1]): 0 | Plant response rating, Velvetleaf (velvetleaf; [2]): 0 | Velvetleaf plant response rating (velvetleaf; [3]): 0 | Velvetleaf plant response rating (velvetleaf; [4]): 0 | Velvetleaf plant response rating (0 to 10 scale) (velvetleaf; Preemergence, Rate 250 g/ha): 4 | Velvetleaf plant response rating (velvetleaf; [5]): 4 | Plant response rating, Velvetleaf (velvetleaf; [6]): 0 | Nutsedge plant response rating (purple nutsedge; [7]): 0 | Plant response rating, Nutsedge (purple nutsedge; [8]): 0 | Plant response rating, Nutsedge (purple nutsedge; [9]): 0 | Nutsedge plant response rating (purple nutsedge; [3]): 0 | Nutsedge plant response rating (purple nutsedge; [4]): 0 | Nutsedge plant response rating (0 to 10 scale) (purple nutsedge; Preemergence, Rate 250 g/ha): 0 | Nutsedge plant response rating (purple nutsedge; [5]): 0 | Giant foxtail plant response rating (giant foxtail; [7]): 3 | Plant response rating, Giant foxtail (giant foxtail; [8]): 4 | Plant response rating, Giant foxtail (giant foxtail; [9]): 7 | Giant foxtail plant response rating (giant foxtail; [3]): 0 | Giant foxtail plant response rating (giant foxtail; [4]): 5 | Giant foxtail plant response rating (0 to 10 scale) (giant foxtail; Preemergence, Rate 250 g/ha): 8 | Giant foxtail plant response rating (giant foxtail; [5]): 8 | Plant response rating, Giant foxtail (giant foxtail; [10]): 9 | Corn plant response rating (corn; [7]): 0 | Plant response rating, Corn (corn; [8]): 0 | Plant response rating, Corn (corn; [9]): 0 | Corn plant response rating (corn; [3]): 0 | Corn plant response rating (corn; [4]): 0 | Corn plant response rating (0 to 10 scale) (corn; Preemergence, Rate 250 g/ha): 0 | Corn plant response rating (corn; [5]): 0 | Plant response rating, Corn (corn; [10]): 0 | Cocklebur plant response rating (cocklebur; [7]): 0 | Plant response rating, Cocklebur (cocklebur; [8]): 0 | Plant response rating, Cocklebur (cocklebur; [9]): 4 | Cocklebur plant response rating (cocklebur; [3]): 0 | Cocklebur plant response rating (cocklebur; [4]): 0 | Cocklebur plant response rating (0 to 10 scale) (cocklebur; Preemergence, Rate 250 g/ha): 0 | Cocklebur plant response rating (cocklebur; [5]): 0 | Plant response rating, Cocklebur (cocklebur; [10]): 2 | Plant response rating, Sugarbeets (sugar beet; [1]): 0 | Plant response rating, Sugarbeets (sugar beet; [2]): 7 | Sugarbeets plant response rating (sugar beet; [3]): 0 | Sugarbeets plant response rating (sugar beet; [4]): 0 | Sugarbeets plant response rating (0 to 10 scale) (sugar beet; Preemergence, Rate 250 g/ha): 0 | Sugarbeets plant response rating (sugar beet; [5]): 0 | Plant response rating, Sugarbeets (sugar beet; [6]): 3
